Patent US20110218143A1, “COMPOSITIONS AND METHODS FOR TISSUE REPAIR” (UNIVERSITY OF FLORIDA RESEARCH FOUNDATION, priority 2007, published 2011)
Values joined by “and” are separate entries in the source; they are usually repeats but may differ in a detail not shown here. Equal entries are not always repeated.

Experiments:
[1] = system: mice with STZ induced diabetes; assay: Glucose challenge test in STZ mice; format: in vivo, C57BL6/J mice; details: 1 g glucose/kg, monitored up to 5 hours, placebo mice at or above 400 mg/dl between 0.5 and 2 hours
Method: STZ was administered to C57BL6/J mice as described above to induce diabetes. Groups of C57BL6/J mice that received either STZ and placebo or STZ and celastrol were then subjected to a glucose challenge test to assay glucose metabolism. STZ mice received 1 g glucose/kg. Blood glucose levels were monitored for up to 5 hours following administration of glucose. […] Blood glucose levels never reached these levels in STZ mice treated with celastrol. In fact, mice treated with celastrol were better able to metabolize glucose than STZ mice that received placebo (FIG. 10).

[2] = system: mice with ALF induced by TAA; assay: Liver histology in thioacetamide (TAA) induced acute liver failure; format: in vivo, C57BL6/J mice; details: TAA 500 mg/kg; celastrol 2.5 mg/kg by injection; 3 days after ALF induction
Method: The administration of thiomacetamide (TAA) to induce liver damage is a well-known model of acute liver failure (ALF), see for example, Müller et al., “Thioacetamide-induced cirrhosis-like liver lesions in rats—usefulness and reliability of this animal model.” Exp Pathol. 1988; 34(4):229-36. Groups of C57BL6/J mice received either TAA (1000 mg/kg), TAA (500 mg/kg), or placebo by intraperitoneal injection. The group receiving TAA (500 mg/kg) was divided into two subgroups, and one group received NS by injection and the other group received celastrol by injection (2.5 mg/kg). Mice were sacrificed either one or three days after treatment. The livers of the mice were removed for histological examination (FIGS. 11A-11D).

[3] = system: mice with DOX induced heart disease; assay: Survival in doxorubicin (DOX) induced heart disease; format: in vivo, C57BL6/J mice; details: DOX 20 mg/kg and celastrol 3 mg/kg; after 2 weeks; DOX with placebo 80% mortality
Method: The administration of doxorubicin (DOX; adriamycin) to induce cardiac damage is a well-known model of heart disease see for example, Rosenhoff et al., “Adriamycin-induced cardiac damage in the mouse: a small-animal model of cardiotoxicity.” J Natl Cancer Inst. July 1975; 55(1):191-4; and van der Vijgh et al., “Morphometric study of myocardial changes during doxorubicin-induced cardiomyopathy in mice.” Eur J Cancer Clin Oncol. October 1988; 24(10):1603-8. Doxorubicin was administered to C57BL6/J mice to induce heart damage. Groups of 13-14 C57BL6/J mice received either DOX (20 mg/kg) and a placebo, or DOX (20 mg/kg) and celastrol (3 mg/kg). Mice were examined after 2 weeks to determine survival (FIG. 13).

[4] = system: irradiated wild type mice, C57BL/6; assay: Transfer of blood cells of treated GFP mice into irradiated wild type mice; format: in vivo, C57BL/6 mice
Method: As reported herein, celastrol activated and mobilized stem cells into peripheral blood. These observations were extended using GFP mice to analyse stem cell mobilization. Mice expressing GFP in their bone marrow were treated with celastrol and placebo. Blood samples were collected on the third day and red blood cells were lysed. White blood cells containing mobilized stem cells, if any, were injected at 0.5×10^6 cells per mouse through retro-orbital sinus into wild type mice, C57BL/6 that were irradiated to destroy the hematopoietic systems. Cells obtained from placebo-treated GFP mice were injected into a group of wild type mice which served as control. Blood samples from wild type mice that received stem cells from celastrol-treated GFP mice were analyzed after 3, 4 and 5 months of transfer.

## CC1=C(O)C(=O)C=C2C1=CC=C1[C@@]2(C)CC[C@@]2(C)[C@@H]3C[C@](C)(C(=O)O)CC[C@]3(C)CC[C@]12C [celastrol]
[1]
  blood glucose levels after glucose challenge: < 400 mg/dL
[2]
  liver histology after ALF induction: regression of liver injury
[3]
  survival: 40%
[4]; irradiated mice given 0.5×10^6 white blood cells from celastrol treated GFP mice, n=4, placebo-cell recipients died between 12 and 16 days
  recipient mice surviving for at least 5 months: 50%
[4]; irradiated mice given cells from celastrol treated GFP mice
  survival time of the other two recipient mice: 17 days and 25 days
